# Experimental data taken from patent publication US6737237B1, “Antimicrobial agents, diagnostic reagents, and vaccines based on unique Apicomplexan parasite components” (Apicomplexan Therapeutics, LLC, priority 1999, dated 2004).
# Several values for one entry are separate records, joined by “and”; a condition that tells them apart may be missing. Equal entries are not always repeated. Where two headings read alike, the source gives them in different places.
# Key:
# [1] = tested on: T. gondii tachyzoites (RH strain); assay: microbe, parasite or virus in culture; format: cell-based, Toxoplasma gondii
# Method: The improvements are based on microscopic visual imspection of infected and inhibitor treated cultures, and on quantitation of nucleic acid synthesis of the parasite by measure intake of ^3H uracil onto the parasite's nucleic acid. Uracil is not utilized by mammalian cells. […] Only the RH strain tachyzoites, cultured for up to 72 hours, had been used in previously reported assays. The use of Me49, Ptg, and R5 mutant are unique aspects of the methods used in these assays in this invention.
# (§1) In these assays toxicity of a candidate inhibitor was assessed by its ability to prevent growth of human foreskin fibroblasts (HFF) after 4 days and after 8 days as measured by tritiated thymidine uptake and microscopic evaluation. Confluent monolayers of HFF were infected with tachyzoites and bradyzoites. Inhibitor was added one hour later. Non-toxic doses were used in parasite growth inhibition assays. Parasite growth was measured by ability to incorporate tritiated uracil during the last 18 hours of culture.
# (§2) First the toxicity of gabaculine was assessed by its ability to prevent growth of human foreskin fibroblasts (HFF) as measured by ^3H-thymidine uptake and microscopic evaluation. Non-toxic doses were used in parasite growth inhibition assays. in vitro parasite growth inhibition assays included confluent monolayers of HFF infected with tachyzoites (RH) or mutant Me49 (R5). Gabaculine was added 1 hour later. Parasite growth was measured by the ability to incorporate ^3H-uracil during the last 18 hours of culture. In addition, parasite growth was evaluated microscopically in Giemsa stained slides.
# ii) in vitro Parasite Growth Inhibition Assays: Confluent monolayers of HFF cells, grown in 96-well plates are infected with T. gondii tachyzoites of the RH strain and serial dilutions of anti-microbial compound are applied 1 hour later. T. gondii growth is assessed in these cultures by their ability to incorporate tritiated uracil (2.5 μCi/well) added during the last 18 hours of culture. After harvesting cells with an automatic cell harvester, uracil incorporation is measured by liquid scintillation.
# C. parvum = C. parvum infection of MDBKF5D2 cell monolayers, immunofluorescence assay at 48 hours; format: cell-based, Cryptosporidium parvum; settings: for approximate 95% C1 count (mean parasite count per field): media alone ~1800
# Method: C. parvum oocysts at 50,000/well were incubated at 37° C. (8% CO2) on confluent MDBKF5D2 cell monolayers in 96 well microtiter plates with the following concentrations of each drug. […] The level of infection of each well was determined and analyzed by an immunofluorescence assay at 48 hours using an antibody to C. parvum sporozoites made in rabbits at a concentration of 0.1%. Fluorescein-conjugated goat anti-rabbit antibody was used at a concentration of 1%.
# (8% carbon dioxide) on confluent MDBKF5D2 cell monolayers in 96 well microtiter plates. The level of infection of each well was determined and analyzed by an immunofluorescence assay at 48 hours using as an antibody C. parvum sporozoite rabbit anti-serum (0.1%), and using fluorescein-conjugated goat anti-rabbit antibody (1%). Data are expressed as mean parasite count/field when 16 fields counted at 10× magnification “s.d. of the mean” (FIG. 6).
# [2] = tested on: T. gondii isocitrate lyase; assay: Isocitrate lyase enzyme activity in T. gondii tachyzoite lysates; format: biochemical, Toxoplasma gondii
# Method: Parasite lysates were obtained from tachyzoites, suspended in elution buffer (100 mM KCL, 20% gylcerol 7 mM 2-mercaptoethanol, 20 mM Tris-HCL, pH 7.5, and complete protease inhibitor cocktail) [Boehringer Mannheim, 1 table per 50 ml buffer], sonicated 3 times for 3 seconds at 30 sec intervals, and centrifuged at 12,000 g for 15 min. The supernatant collected was applied to a Sephadex® G100 column (25 ml, Pharmacia) equilibrated with elution buffer, eluted with 15 ml of elution buffer,. and ≈1.5 ml fractions were collected. Fraction(s) with the peak protein concentrations (protein analysis performed on a spectrophotometer at 280 nm) were selected and used in enzyme assays.
# A discontinuous method descrobed by Ko and McFadden^17 was employed with minor modifications to measure the ability of isocitrate lyase to convert isocitrate to succinate and glyoxylate. This method utilizes the colorimetric reaction between the phenylhydrozone of glyoxylate and ferricyanide. Reaction mixtures (92 mM MOPS, 5 mM MgCL2, 1 mM DTT, 1% phenylhydrazine, 4.4 mM isocitrate, in 0.5 ml with fractionated parasite lysate) were incubated in a 37° C. water bath for a determined amount of time. After incubation, enzymatic reactions were stopped with concentrated HCl, mixed with 25% (w/v) potassium ferricyanide, and then measured in a spectrophotometer at 520 nm.
# [3] = tested on: D6 clone of Plasmodium falciparum; assay: P. falciparum in vitro assay (Milhous et al., 1985), D6 clone; format: cell-based; settings: D6 clone, folate deficient RPMI 1640, 66 hour incubation
# [4] = tested on: P. falciparum asexual erythrocytic forms; assay: P. falciparum in vitro growth, clone not stated; format: cell-based, Plasmodium falciparum
# Method: This assay is performed in folate deficient RPMI 1640 over a 66 hour incubation in plasma as described by Milhous et al. (1985). Both the W2 clone DHFR resistant phenotype and the D6 clone are used (Odula et al., 1988) (Table 3).
# T. gondii = assay: Assay for synergy in vitro: inhibitors alone and together on replication of T. gondii (uracil CPM); format: cell-based, Toxoplasma gondii; settings: Drug A alone: NPMG (3.25 mM)
# From the text: The effect of enzymes in pathways “in parallel” are additive and in “series” are more than the additive effect of either inhibitor used alone (i.e., synergistic). […] The shikimate pathway produces 3,4-dihdroxybenzoate which is converted to ubiquinone, an essential component of the electron transport chain. Thus, NPMG, an inhibitor of EPSP-synthase, indirectly affects ubiquinone production and, thus, the electron transport chain. Similarly, heme is required for production of cytochromes in the electron transport chain. Thus, inhibition of heme production by gabaculine also indirectly affects the conventional electron transport chain. […] T. gondii growth is measured by their ability to incorporate tritiated uracil and is expressed as counts/minute (CPM).
# g) Assays for Synergy in vitro: This is an assy in which ≦50% inhibitor concentrations of two antimicrobial agents are added alone and together to determine whether there is an additive, synergistic or inhibitory interaction. All other aspects of this assay are as described herein.
# T. gondii EPSP synthase = T. gondii EPSP synthase enzyme activity (HPLC); format: biochemical, Toxoplasma gondii; settings: 1 mM
# Method: Assays for 4-aminobenzoate and 4-amino-4-deoxychorismate are performed as described previously.” Enzyme Assays: The 5-enolpyruvylshikimate-3-phosphate (EPSP) synthase assay entailed monitoring the generation of EPSP using HPLC. Reaction components were separated using a Hypersil H3APS2 HPLC column (Hichrom Limited, Reading, UK) and a NaH2PO4 elution gradient (50-400 mM). UV spectra (200-300 nm) of the colume eluate were collected to identify eluants. […] The peaks at 215 nm were integrated; the EPSP produced was quantified using a standard curve of authentic EPSP. Parasite extracts were produced at 4° C. by suspension of pure tachyzoites in extraction buffer (50 mM Tris.HCl, pH 7.5, containing complete TM protease inhibitor cocktail [Boehringer Mannheim, 1 tablet per 50 ml buffer]), sonication 3 times for 3 seconds at 30 second intervals, and centrifugation at 12000 g for 15 min. The resulting supernatant was diluted 6-fold with extraction buffer and loaded onto a ResourceQ column (1 ml, Pharmacia) equilibrated with extraction buffer. The bound protein was eluted in a single step using extraction buffer containing 500 mM Kcl. The eluted material was used for enzyme assay. The assay mix contained 1 mM phosphoenolpyruvate, 1 mM SP and 50 mM HEPES, pH 7.5. […] Protein concentrations of lysates were determined using the Lowry method. […]
# [5] = tested on: mutant R5 strain of T. gondii; assay: Growth of mutant R5 strain of T. gondii in HFF over 8 days, uracil uptake; format: cell-based, Toxoplasma gondii; settings: gabaculine 20 mM; P/S
# Method: Improvements were developed in the assays reported by Mack et al. (1984) and Holfels et al. (1994) to measure T. gondii replication in tissue culture. The improvements are based on microscopic visual imspection of infected and inhibitor treated cultures, and on quantitation of nucleic acid synthesis of the parasite by measure intake of ^3H uracil onto the parasite's nucleic acid. Uracil is not utilized by mammalian cells. […]
# First the toxicity of gabaculine was assessed by its ability to prevent growth of human foreskin fibroblasts (HFF) as measured by ^3H-thymidine uptake and microscopic evaluation. […] Parasite growth was measured by the ability to incorporate ^3H-uracil during the last 18 hours of culture. In addition, parasite growth was evaluated microscopically in Giemsa stained slides.
# This mutant strain is atovaquone resistant and posseses certain characterisitics of the tachyzoite stage and certain characteristics of the bradyzoite stage. T. gondii growth is measure by their ability to incorporate tritiated uracil and is expressed as counts/minute (CPM) on the Y-axis. […]
# [6] = tested on: human foreskin fibroblasts (HFF); assay: Toxicity: growth of fibroblasts, tritiated thymidine uptake and microscopic evaluation; format: cell-based; settings: similar concentrations (20 mM gabaculine)
# Method: as §1, §2
# d) Inhibitors: Inhibitor compounds are tested over a range of concentrations for toxicity against mammalian cells by assessing their ability to prevent cell growth as measured by tritiated thymidine uptake and inspection of the monolayer using microscopic evaluation. […]
smiles,measurement,setting,value
"O=C(O)CC[N+](=O)[O-] [3-NPA, 3-Nitropropionic acid]",CPM restricted (tritiated uracil incorporation),"[1]; 3-NPA 0.006 mg ml, 4-day, medium about 30,000 CPM",around 60%
same,effect on Cryptosporidia in vitro,C. parvum,inhibited
same,Isocitrate lyase enzyme activity,[2],inhibition
"O=C(O)CNCP(=O)(O)O [NPMG, N-(phosphonomethyl) glycine]",CPM restricted (tritiated uracil incorporation),"[1]; NPMG 3.12 mM, 4 day, medium around 72,000",around 60%
same,counts (tritiated uracil incorporation),"[1]; NPMG 4.5 mM, 4 day, medium around 72,000, no RH around 2,000 CPM","about 12,000 CPM"
same,product rescue: effect of added PABA on inhibition by NPMG,[1]; PABA added to cultures,abrogates
same,inhibition at 4500 µM,"[1]; Toxoplasma gondii, Fibroblast, 96 h, NPMG 4.5 mM, 4 day, read-out: parasite growth inhibited",~80%
same,approximate 95% C1 count (mean parasite count per field),C. parvum; NPMG 0.45 μg/ml,~1200
same,approximate 95% C1 count (mean parasite count per field),C. parvum; NPMG 4.5 μg/ml,~900
same,approximate 95% C1 count (mean parasite count per field),C. parvum; NPMG 0.045,~1200
same,effect of PABA on the effect of NPMG on C. parvum,C. parvum; PABA added,not abrogated by PABA
same,IC50,[3]; read-out: IC 50,0.823 µg/mL
same,IC90,[3]; read-out: IC90,2.51 µg/mL
same,antagonism of glyphosate growth inhibition by products,"[4]; asexual erythrocytic forms, PABA and folate added",PABA and folate antagonism of growth inhibition
same,CPM for A,T. gondii,28138 ± 2216 CPM and 25097 ± 1398 CPM
same,EPSP synthase enzyme activity,T. gondii EPSP synthase,inhibition
"NC1C=CC=C(C(=O)O)C1 (centres unmarked) [gabaculine, 3-amino-2,3-dihydrobenzoic acid]",CPM restricted (tritiated uracil incorporation),[1],around 50%
same,counts (tritiated uracil incorporation),[1],"about 5,000 CPM"
same,inhibition at 5000 µM,"[1]; Toxoplasma gondii, Fibroblast, 96 h, read-out: growth of T. gondii inhibited",~60%
same,Parasite growth over the 8 day time course (CPM),"[1]; gabaculine 20 mM, P/S",restricted
same,Parasite growth of R5 strain over 8 days (CPM),[5],restricted in cultures with 20 mM gabaculine (gabaculine) over the first 6 days of culture
same,toxicity to the foreskin fibroblasts,[6],no toxicity
same,approximate 95% C1 count (mean parasite count per field),C. parvum; gabaculine 0.2 μg/ml,~1300
same,approximate 95% C1 count (mean parasite count per field),C. parvum; gabaculine 2 μg/ml,~600
same,approximate 95% C1 count (mean parasite count per field),C. parvum; gabaculine 20 μg/ml,~200
same,IC50,[4]; Plasmodium falciparum,≥ 45 µg/mL
